≈ marks a conversion by molar mass, not a printed value. Entries after “also recorded” stand apart in the source; their conditions may differ.
Tests used:
[1] = system: S. aureus (Strain ATCC 43300, MRSA); assay: Antibacterial assay, MIC; format: cell-based, Staphylococcus aureus; conditions: for MIC: Staphylococcus aureus
Experimental: (§1) All bacteria, S. aureus (Strain ATCC 43300, MRSA), E. coli (Strain ATCC 25922, FDA control strain), K. pneumoniae (Strain ATCC 700603, MDR), A. baumannii (Strain ATCC 19606, Type strain), P. aeruginosa (Strain ATCC 27853, Quality control strain), were cultured in Cation-adjusted Mueller Hinton broth (CAMHB) at 37 °C overnight. A sample of each culture was then diluted 40-fold in fresh broth and incubated at 37 °C for 1.5–3 h. The resultant mid-log phase cultures were diluted (CFU/mL measured by OD600), then added to each well of the compound containing plates, giving a cell density of 5 × 10^5 CFU/mL and a total volume of 50 μL. All the plates were covered and incubated at 37 °C for 18 h without shaking.
(§2) Analysis: Inhibition of bacterial growth was determined measuring absorbance at 600 nm (OD600), using a Tecan M1000 Pro monochromator plate reader. The percentage of growth inhibition was calculated for each well, using the negative control (media only) and positive control (bacteria without inhibitors) on the same plate as references. […]

[2] = system: C. neoformans (Strain ATCC 208821, H99 Type strain); assay: Antifungal assay, MIC; format: cell-based, Cryptococcus neoformans var. grubii; conditions: for MIC: Cryptococcus neoformans, ATCC208821
Experimental: (§3) Fungi strains C. albicans (Strain ATCC 90028, CLSI reference) and C. neoformans (Strain ATCC 208821, H99 Type strain), were cultured for 3 days on Yeast Extract-Peptone Dextrose (YPD) agar at 30 °C. A yeast suspension of 1 × 10^6 to 5 × 10^6 CFU/mL (as determined by OD530) was prepared from five colonies. The suspension was subsequently diluted and added to each well of the compound-containing plates giving a final cell density of fungi suspension of 2.5 × 10^3 CFU/mL and a total volume of 50 μL. All plates were covered and incubated at 35 °C for 36 h without shaking.
(§4) Analysis: Growth inhibition of C. albicans was determined measuring absorbance at 630 nm (OD630), while the growth inhibition of C. neoformans was determined measuring the difference in absorbance between 600 and 570 nm (OD600–570), after the addition of resazurin (0.001% final concentration) and incubation at 35 °C for 2 h. The absorbance was measured using a Biotek Multiflo Synergy HTX plate reader. In both cases, the percentage of growth inhibition was calculated for each well, using the negative control (media only) and positive control (fungi without inhibitors) on the same plate. […] Due to a higher variance in growth and inhibition, a lower threshold was applied to the data for C. neoformans.

[3] = system: C. albicans (Strain ATCC 90028, CLSI reference); assay: Antifungal assay, MIC; format: cell-based, Candida albicans; conditions: for MIC: Candida albicans, ATCC90028
Experimental: as §3, §4

haemolytic activity = assay: Haemolysis assay; format: cell-based; conditions: for Hc10 (concentration at 10% haemolytic activity): unit not given
Experimental: Hc10 (concentration at 10% haemolytic activity) was calculated by curve fitting the inhibition values vs. log(concentration) using a Sigmoidal dose-response function, with variable values for bottom, top and slope. The curve fitting is implemented using Pipeline Pilot’s dose-response component (giving similar results to similar tools such as GraphPad’s Prism and IDBS’s XlFit). […] DMax represents the highest percentage inhibition response for all concentrations tested. […] In addition, the value indicates if samples have been active, but curve fitting failed, mostly because only the single highest concentration was active.

[4] = system: A. baumannii (Strain ATCC 19606, Type strain); assay: Antibacterial assay, MIC; format: cell-based, Acinetobacter baumannii; conditions: for MIC: Acinetobacter baumannii, ATCC19606
Experimental: as §1, §2

HEK293 cells = assay: Cytotoxicity assay (resazurin); format: cell-based
Experimental: (§5) HEK293 cells were counted manually in a Neubauer haemocytometer and then plated in the 384-well plates containing the compounds to give a density of 6000 cells/well in a final volume of 50 μL. DMEM supplemented with 10% FBS was used as growth media and the cells were incubated together with the compounds for 20 h at 37 °C in 5% CO2. Analysis: Cytotoxicity (or cell viability) was measured by fluorescence, ex: 560/10 nm, em: 590/10 nm (F560/590), after addition of 5 μL of 25 μgmL^−1 Resazurin (2.3 μgmL^−1 final concentration) and after incubation for further 3h at 37 °C in 5% CO2. The fluorescence intensity was measured using a Tecan M1000 Pro monochromator plate reader, using automatic gain calculation CC50 (concentration at 50% cytotoxicity) were calculated by curve fitting the inhibition values vs. log(concentration) using sigmoidal dose-response function, with variable fitting values for bottom, top and slope.

[5] = system: Staphylococcus aureus, Acinetobacter baumannii, Candida albicans and Cryptococcus neoformans var. grubii; assay: Initial antimicrobial screen (CO-ADD); format: cell-based; conditions: 10 μM; Active / Inactive
Text: We then screened this series of 1,2,3-dithiazoles and 1,2,3-thiaselenazoles (8−15) against Staphylococcus aureus, Acinetobacter baumannii, Candida albicans and Cryptococcus neoformans var. grubii (Table 1) as part of the Community for Antimicrobial Drug Discovery (CO-ADD) initiative to develop new lead compounds [51]. These represent three distinct classes of microbes. Staphylococcus aureus (ATCC 43300) is a gram-positive bacterium derived from the super bug methicillin-resistant Staphylococcus aureus (MRSA). Acinetobacter baumannii (ATCC 19606) is a gram-negative bacterium hospital-derived infection with very few antibiotics that can treat this pathogen. Candida albicans (ATCC 90028) and Cryptococcus neoformans var. grubii (ATCC 208821) are both opportunistic fungi. These fungal pathogens are particularly dangerous for patients in hospital with immunodeficiencies, undergoing cancer chemotherapy and organ transplantation. These strains are considered by the World Health Organization (WHO) to be the highest priority to develop novel antibiotics for control of these bacteria and fungi. These are some of the most difficult to treat, particularly in a hospital setting where sepsis and pneumonia can quickly overcome the body’s immune system.
The 1,2,3-thiaselenazole analog (13) was potent on against three of the four pathogens with a similar profile to 9a without the activity on A. baumannii.
Antimicrobial screening was performed by CO-ADD (The Community for Antimicrobial Drug Discovery), Australia.
as §1, §2
Fungi strains C. albicans (Strain ATCC 90028, CLSI reference) and C. neoformans (Strain ATCC 208821, H99 Type strain), were cultured for 3 days on Yeast Extract-Peptone Dextrose (YPD) agar at 30 °C. A yeast suspension of 1 × 10^6 to 5 × 10^6 CFU/mL (as determined by OD530) was prepared from five colonies. The suspension was subsequently diluted and added to each well of the compound-containing plates giving a final cell density of fungi suspension of 2.5 × 10^3 CFU/mL and a total volume of 50 μL. All plates were covered and incubated at 35 °C for 36 h without shaking. […]

[6] = Cytotoxicity assay (resazurin); format: cell-based; conditions: human; HEK293 cells, 20 h; unit not given in Table 1; read-out: CC50 (concentration at 50% cytotoxicity)
Experimental: as §5

[7] = ATCC 43300 (MRSA), MIC = lowest concentration with inhibition ≥80%
[8] = ATCC 208821, inhibition ≥70% (method)
[9] = ATCC 19606, MIC = lowest concentration with inhibition ≥80%

| Molecule | Hc10 (concentration at 10% haemolytic activity) (haemolytic activity) | Initial Screen [5] | melting point [°C] | MIC [1, 7] [µg/mL] | MIC [2, 8] [µg/mL] | MIC ([3]; ATCC 90028, inhibition ≥80%) [µg/mL] | MIC [4, 9] [µg/mL] | CC50 at 20 h [6] [µg/mL] | also measured |
| --- | --- | --- | --- | --- | --- | --- | --- | --- | --- |
| 8-Chloroindeno[1,2-d][1,2,3]thiaselenazole [Compound 9a] | >32 |  |  |  |  |  |  |  | Antibacterial S. aureus MIC [1, 7]: >32 µg/mL; Antifungal C. neoformans MIC [2, 8]: ≤0.25 µg/mL; Antifungal C. albicans MIC ([3]; ATCC 90028, inhibition ≥80%): ≤0.25 µg/mL; Antibacterial A. baumannii MIC [4, 9]: >32 µg/mL; CC50 (concentration at 50% cytotoxicity) (HEK293 cells; 20 h, unit not given in Table 1): >32 µM |
| 8-Phenylindeno[1,2-d][1,2,3]thiaselenazole [Compound 9b] |  | Inactive |  |  |  |  |  |  |  |
| Clc1c2nssc-2c(Cl)c1Cl [Compound 10a, 4,5,6-Trichlorocyclopenta[d][1,2,3]dithiazole] |  | Inactive | 122 to 124 |  |  |  |  |  |  |
| N#Cc1c2nssc-2c(Cl)c1Cl [Compound 10b, 5,6-Dichlorocyclopenta[1,2,3]dithiazole-4-carbonitrile] | >32 |  | 217 to 219 | > 32 | ≤ 0.25 | ≤ 0.25 | > 32 | > 32 | Activity against S. aureus (in words) [1]: removed all activity; Activity against C. neoformans (in words) [2]: maintained activity; Activity against C. albicans (in words) [3]: maintained activity; Activity against A. baumannii (in words) [4]: removed all activity; Toxicity (in words) (HEK293 cells): no toxicity |
| CCOC(=O)c1c2nssc-2c(Cl)c1Cl [Compound 10c, Ethyl 5,6-dichlorocyclopenta[d][1,2,3]dithiazole-4-carboxylate] | >32 |  | 80 to 82 | > 32 | > 32 | ≤ 0.25 | > 32 | > 32 | Activity against C. albicans (in words) [3]: selective for C. albicans; Toxicity (in words) (HEK293 cells): no toxicity |
| Clc1c2n[se]sc-2c(Cl)c1Cl [Compound 11a, 4,5,6-Trichlorocyclopenta[d][1,2,3]thiaselenazole] | >32 |  | 117 to 119 | ≤ 0.25 | ≤ 0.25 | ≤ 0.25 | ≤ 0.25 | 0.52 (≈ 1.78 µM) | Activity against S. aureus (in words) [1]: very potent; Activity against C. neoformans (in words) [2]: very potent; Activity against C. albicans (in words) [3]: very potent; Haemolysis (in words) (haemolytic activity): no haemolysis; Activity against A. baumannii (in words) [4]: very potent |
| N#Cc1c2n[se]sc-2c(Cl)c1Cl [Compound 11b, 5,6-Dichlorocyclopenta[d][1,2,3]thiaselenazole-4-carbonitrile] | >32 |  | 171 to 173 | ≤ 0.25 | ≤ 0.25 | ≤ 0.25 | > 32 | > 32 | Activity against S. aureus (in words) [1]: potent |
| CCOC(=O)c1c2n[se]sc-2c(Cl)c1Cl [Compound 11c, Ethyl 5,6-dichlorocyclopenta[d][1,2,3]thiaselenazole-4-carboxylate] | >32 |  | 188 to 190 | ≤ 0.25 | ≤ 0.25 | ≤ 0.25 | > 32 | 7 (≈ 21.3 µM) | Haemolysis (in words) (haemolytic activity): no haemolysis |
| ClC1=C2SSN=C2c2ccccc2C(Cl)=C1Cl [Compound 12, 4,5,6-Trichlorobenzo[6,7]cyclohepta[1,2-d][1,2,3]dithiazole] |  | Inactive | 119 to 121 |  |  |  |  |  |  |
| ClC1=C2S[Se]N=C2c2ccccc2C(Cl)=C1Cl [Compound 13, 4,5,6-Trichlorobenzo[6,7]cyclohepta[1,2-d][1,2,3]thiaselenazole] | >32 |  | 144 to 145 | ≤ 0.25 | ≤ 0.25 | ≤ 0.25 | > 32 | 0.48 (≈ 1.31 µM) |  |
| c1ccc2c(c1)N=C1SSN=C1O2 [Compound 14, Benzo[b][1,2,3]dithiazolo[5,4-e][1,4]oxazine] |  | not fruitful; also recorded: Inactive | 182 to 184 |  |  |  |  |  |  |
